# What was measured:
# [1] = tested on: differentiating cultured human myotubes (primary myoblasts W018); assay: In vitro model for myogenesis: myotube fusion index (modified MyoScreen); assay type: cell-based; conditions: myotubes in DMEM with 0.15× plasma amino acid profile, treated with amino acids at 1× human plasma concentration, 4 days
# Experimental: (§1) Primary myoblasts (W018) were amplified and seeded into CYTOOplates on Day 0. After one day differentiation was started in DMEM/F12+GlutaMAX supplemented with 0.1% Horse Serum.
# Fusion Index Analysis after 4 Days by Fluorescence Microscopy
# Images were acquired with Operetta HCS platform (Perkin Elmer) using a 10× objective in two fluorescent channels: nuclei, Troponin T. Image processing and analysis were performed with a dedicated algorithm developed on Acapella high Content imaging Software (Perkin Elmer) at CYTOO. Nuclei within myotubes were counted under myotube mask generated by troponin co-stain and fusion index was calculated as the percentage of fused nuclei in myotube over total nuclei. Statistical analysis was done with T-Test relative to the untreated condition.
# [2] = tested on: cultured human myotubes (primary myoblasts W018); assay: In vitro model for muscle protein synthesis: Click-iT OPP incorporation in myotubes (modified MyoScreen); assay type: cell-based; conditions: myotubes in DMEM with 0.15× plasma amino acid profile, treated with amino acids at 1× human plasma concentration, 4 days; Click-iT signal in myotube mask
# Experimental: The ability of amino acids to influence protein synthesis in muscle cells was assessed using a modified version of MyoScreen (Cytoo SA, Grenoble Fr).
# as §1
# Protein Synthesis after 4 Days by Fluorescence Microscopy
# After 4 days of culture, cells were washed twice with PBS 1× (Gibco), fixed with 4% Paraformaldehyde, and washed twice with PBS 1× (100 μL). Cells were then permeabilized by 0.5% Triton X-100 followed by three washes with PBS. After fixation, cells were immuno-stained for troponin to identify specific myotubes. […] In the Click-iT assay, 0-propargyl-puromycin (OPP) is efficiently incorporated into newly translated proteins in vivo for 30 minutes and then fluorescently labeled with Alexa Fluor® dye, which can be detected by high-content imaging (Molecular Devices). Click-iT signal was restricted to the myotube mask generated by the troponin co-stain. Data was collected as Click-iT mean intensity in myotubes (au). Images were acquired with Operetta HCS platform (Perkin Elmer) using a 10× objective in three fluorescent channels: nuclei, Troponin T, and Click-iT. Image processing and analysis were performed with a dedicated algorithm developed on Acapella high Content imaging Software (Perkin Elmer) at CYTOO. […]
smiles,measurement,setting,value
"N[C@@H](CC(=O)O)C(=O)O [D, Aspartic acid/Aspartate]",Fusion Index median,[1],0.05657
same,Protein Synthesis median,[2],0.1078

# From patent US20230089723A1, “AMINO ACID COMPOSITIONS AND METHODS FOR MUSCLE AND MYOTUBE MODULATION” (AXCELLA HEALTH INC., priority 2020, published 2023)
